In the assay the test system is cardiac allograft (C57BL/6 to BALB/c mice). As to the kind of experiment: C57BL/6 to BALB/c fully MHC-mismatched mouse heart transplantation model (graft survival, pulsation). The format is in vivo. The procedure: The studies described in this section examined graft survival in a C57BL/6 to BALB/c fully MHC-mismatched mouse heart transplantation model. Each experimental group included 4-6 animals. Some of the experimental groups were treated with antibodies. […] Antibody 4 is a control, murine monoclonal antibody that shares a variable region with Antibody 2. […]
An experiment was also performed to evaluate whether use of an anti-CD200 antibody can reduce the duration or amount of mycophenolate mofetil that is necessary to prolong the survival of an allograft in a recipient mammal. First, a pilot experiment was performed to determine the dose of, and duration of, mycophenolate mofetil required to prolong allograft survival in mice. As described in Example 3, these studies examined graft survival in a C57BL/6 to BALB/c fully MHC-mismatched mouse heart transplantation model. Each experimental group included five (5) animals. The three experimental groups were treated as follows:
Group 1-PE (pilot experiment): cardiac allograft-bearing mice were orally administered mycophenolate mofetil at a dose of 120 mg/kg each day of the study beginning at the time of transplant;
Group 2-PE: cardiac allograft-bearing mice were orally administered mycophenolate mofetil at a dose of 80 mg/kg each day of the study beginning at the time of transplant; and
Group 3-PE: cardiac allograft-bearing mice were orally administered FK-506 at a dose of 16 mg/kg for each day of the study beginning at the time of transplant. […]
As described in Example 3, these studies examined graft survival in a C57BL/6 to BALB/c fully MHC-mismatched mouse heart transplantation model. Each experimental group included five (5) animals. The five experimental groups were treated as follows: […]
As described in Example 3, these studies examined graft survival in a C57BL/6 to BALB/c fully MHC-mismatched mouse heart transplantation model. Each experimental group included five (5) animals. The three experimental groups were treated as follows, with treatment beginning at the time of transplantation: […]

The structures appear in SMILES notation. Several values for one entry are separate records, joined by “and”; a condition that tells them apart may be missing. Equal values may be shown once.

Take `COc1c(C)c2c(c(O)c1C/C=C(\C)CCC(=O)OCCN1CCOCC1)C(=O)OC2` [mycophenolate mofetil]: the “Individual Survival” value (mycophenolate mofetil alone, 80 mg/kg orally each day of the study (pilot experiment), 80 mg/kg) is 18 days and 19 days and 20 days and 22 days (2×); the “Individual Survival” value (mycophenolate mofetil alone, 120 mg/kg orally each day of the study (pilot experiment), 120 mg/kg) is 20 days and 21 days and 22 days and 23 days and 25 days. In addition, under “mycophenolate mofetil alone, 80 mg/kg orally each day of the study (pilot experiment), listed as MMF, 80 mg/kg”, the “Mean Survival” value is “approximately 20.2 days”.
As to `C=CC[C@@H]1/C=C(\C)C[C@H](C)C[C@H](OC)[C@H]2O[C@@](O)(C(=O)C(=O)N3CCCC[C@H]3C(=O)O[C@H](/C(C)=C/[C@@H]3CC[C@@H](O)[C@H](OC)C3)[C@H](C)[C@@H](O)CC1=O)[C@H](C)C[C@@H]2OC` [FK-506, tacrolimus], the “Individual Survival” value (FK-506 alone, 16 mg/kg orally each day of the study, 16 mg/kg) was 23 days and 25 days (2×) and 26 days and 27 days.

The values above are taken from patent publication US9447187B2, “Use of an anti-CD200 antibody for prolonging the survival of allografts” (Alexion Pharmaceuticals, Inc., priority 2011, dated 2016).
